Results: patent US7910600B2, “Therapeutic kinase modulators” (Cylene Pharmaceuticals, Inc., priority 2007, dated 2011)

Tests used:
[1] = system: PC-3 human prostatic cancer cells; assay: Cell proliferation assay (Alamar Blue), PC3; format: cell-based; conditions: PC3 cell line
Procedure: (§1) A representative cell-proliferation assay protocol using Alamar Blue dye (stored at 4° C., use 20 ul per well) is described hereafter.
(§2) 96-Well Plate Setup and Compound Treatment
(§3) • a. Split and trypsinize cells. • b. Count cells using hemocytometer. • c. Plate 4,000-5,000 cells per well in 100 μl of medium and seed into a 96-well plate according to the following plate layout. Add cell culture medium only to wells B10 to B12. Wells B1 to B9 have cells but no compound added.
(§4) • d. Add 100 μl of 2× drug dilution to each well in a concentration shown in the plate layout above. At the same time, add 100 μl of media into the control wells (wells B10 to B12). Total volume is 200 μl/well. • e. Incubate four (4) days at 37° C., 5% CO2 in a humidified incubator. • f. Add 20 μl Alamar Blue reagent to each well. • g. Incubate for four (4) hours at 37° C., 5% CO2 in a humidified incubator. • h. Record fluorescence at an excitation wavelength of 544 nm and emission wavelength of 590 nm using a microplate reader.
(§5) In the assays, cells are cultured with a test compound for approximately four days, the dye is then added to the cells and fluorescence of […] dye is detected after approximately four hours. Different types of cells can be utilized in the assays (e.g., HCT-116 human colorectal carcinoma cells, PC-3 human prostatic cancer cells and MiaPaca human pancreatic carcinoma cells).

[2] = system: MiaPaca human pancreatic carcinoma cells; assay: Cell proliferation assay (Alamar Blue), MiaPaCa; format: cell-based; conditions: MIA PaCa-2, MiaPaCa cell line
Procedure: as §1, §2, §3, §4, §5

recombinant human CK2 = target: T1, recombinant human CK2 (Homo sapiens, UniProt P68400); assay: Cell-free CK2 assay; format: biochemical; conditions: for inhibition at 0.5 µM: read-out: CK2: % inh 500 nM
T1 construct: purchased Upstate
T1 sequence (P68400 whole entry): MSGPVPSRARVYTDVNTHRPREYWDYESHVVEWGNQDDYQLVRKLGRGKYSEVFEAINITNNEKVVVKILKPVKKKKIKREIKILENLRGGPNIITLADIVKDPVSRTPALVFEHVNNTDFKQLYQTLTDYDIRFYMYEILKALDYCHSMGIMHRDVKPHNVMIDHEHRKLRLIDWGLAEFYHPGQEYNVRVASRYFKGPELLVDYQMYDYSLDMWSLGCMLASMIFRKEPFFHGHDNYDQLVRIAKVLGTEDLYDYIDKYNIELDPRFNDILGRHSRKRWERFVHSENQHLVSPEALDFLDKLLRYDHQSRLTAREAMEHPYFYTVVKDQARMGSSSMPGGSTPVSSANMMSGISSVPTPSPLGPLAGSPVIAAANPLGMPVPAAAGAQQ
T1 sequence (P67870 whole entry partner): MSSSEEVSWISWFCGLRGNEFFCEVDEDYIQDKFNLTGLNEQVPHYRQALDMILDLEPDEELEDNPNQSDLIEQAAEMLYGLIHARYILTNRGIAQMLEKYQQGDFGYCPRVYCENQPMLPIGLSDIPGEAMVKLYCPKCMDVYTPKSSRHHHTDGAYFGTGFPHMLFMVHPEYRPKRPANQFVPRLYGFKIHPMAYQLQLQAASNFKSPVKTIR
Procedure: Modulatory activity of compounds described herein is assessed in vitro in cell-free CK2 assays. These assays are described hereafter.
Test compounds in aqueous solution are added at a volume of 10 microliters, to a reaction mixture comprising 10 microliters Assay Dilution Buffer (ADB; 20mM MOPS, pH 7.2, 25 mM beta-glycerolphosphate, 5 mM EGTA, 1 mM sodium orthovanadate and 1 mM dithiothreitol), 10 microliters of substrate peptide (RRRDDDSDDD (SEQ ID NO:4), dissolved in ADB at a concentration of 1 mM), 10 microliters of recombinant human CK2 (25 ng dissolved in ADB; Upstate). Reactions are initiated by the addition of 10 microliters of ATP Solution (90% 75 mM MgC12, 75 micromolar ATP dissolved in ADB; 10% [γ-^33P]ATP (stock 1 mCi/100 μl; 3000 Ci/mmol (Perkin Elmer) and maintained for 10 minutes at 30 degrees C. The reactions are quenched with 100 microliters of 0.75% phosphoric acid, then transferred to and filtered through a phosphocellulose filter plate (Millipore). After washing each well 5 times with 0.75% phosphoric acid, the plate is dried under vacuum for 5 min and, following the addition of 15 ul of scintillation fluid to each well, the residual radioactivity is measured using a Wallac […].

BxPC3 = assay: Cell proliferation assay (Alamar Blue), BxPC3; format: cell-based; conditions: Homo sapiens, BXPC-3; BxPC3 cell line; read-out: Bx-PC3
Procedure: as §1, §2, §3, §4, §5

[3] = system: HCT-116 human colorectal carcinoma cells; assay: Cell proliferation assay (Alamar Blue), HCT-116; format: cell-based; conditions: HCT-116 cell line
Procedure: as §1, §2, §3, §4, §5

K562 = assay: Cell proliferation assay (Alamar Blue), K562; format: cell-based; conditions: Homo sapiens; K562 cell line
Procedure: as §1, §2, §3, §4, §5

MDA-MB231 = assay: Cell proliferation assay (Alamar Blue), MDA-MB231; format: cell-based; conditions: Homo sapiens, MDA-MB-231; MDA-MB231 cell line
Procedure: as §1, §2, §3, §4, §5

MV-4-11 = assay: Cell proliferation assay (Alamar Blue), MV-4-11; format: cell-based; conditions: Homo sapiens, MV4-11; MV-4-11 cell line
Procedure: as §1, §2, §3, §4, §5

PanC1 = assay: Cell proliferation assay (Alamar Blue), PanC1; format: cell-based; conditions: Homo sapiens, PANC-1; PanC1 cell line
Procedure: as §1, §2, §3, §4, §5

Jurkat = assay: Cell proliferation assay (Alamar Blue), Jurkat; format: cell-based; conditions: Homo sapiens; Jurkat cell line
Procedure: as §1, §2, §3, §4, §5

SMILES	IC50 [1] [µM]	IC50 [2] [µM]	IC50 (recombinant human CK2) [µM]	inhibition at 0.5 µM (recombinant human CK2) [%]	IC50 (BxPC3) [µM]	IC50 [3] [µM]	IC50 (K562) [µM]	IC50 (MDA-MB231) [µM]	IC50 (MV-4-11) [µM]	IC50 (PanC1) [µM]	IC50 (Jurkat) [µM]
O=C(O)c1ccc2c(c1)nc(-c1cccc(Cl)c1)c1ccncc12	> 10	> 10	0.03	95	> 10	> 10	0.9	> 10	> 10		
O=C(O)c1ccc2c(c1)nc(-c1ccccc1)c1nc(NC3CC3)ncc12 [3-(cyclopropylamino)-5-phenylpyrimido[4,5-c]quinoline-8-carboxylic acid]		3.7	0.093	99	4.5	2.9		11.1		15.9	1.5
O=C(NC1CC1)c1ccc2c(c1)nc(-c1ccccc1)c1nc(NC3CC3)ncc12 [N-cyclopropyl-3-(cyclopropylamino)-5-phenylpyrimido[4,5-c]quinoline-8-carboxamide]		58.4		-4	1.2	0.8		> 62.5		30.2	0.6
COC(=O)c1ccc2c(c1)nc(-c1cnn(C)c1)c1nc(SC)ncc12 [Methyl 5-(1-methyl-1H-pyrazol-4-yl)-3-(methylthio)pyrimido[4,5-c]quinoline-8-carboxylate]		> 62.5		68	> 62.5	> 10		> 62.5		> 62.5	47.6
COC(=O)c1ccc2c(c1)nc(-c1ccccc1)c1nc(S(C)(=O)=O)ncc12 [methyl 3-(methylsulfonyl)-5-phenylpyrimido[4,5-c]quinoline-8-carboxylate]		5.5		-18	10.6	2.7		6.4		9.8	0.7
COC(=O)c1ccc2c(c1)nc(-c1cnn(C)c1)c1nc(NC3CC3)ncc12		0.6		10	> 30	> 10		17.2		1.4	> 30
NC(=O)c1ccc2c(c1)nc(-c1ccccc1)c1nc(NC3CC3)ncc12		5.2		45	1.1	1.1		35.7		25.9	0.5
O=C(O)c1ccc2c(c1)nc(-c1cccc(F)c1)c1ccncc12	> 10	> 10	0.029	98		> 10	> 10	0.2	1.4		
Cn1cc(-c2nc3cc(C(=O)O)ccc3c3cnc(NC4CC4)nc23)cn1		0.9	0.004	101	13.6	> 10	0.6	> 30	0.6	> 30	3.6
CN1CCN(C(=O)c2ccc3c(c2)nc(-c2cccc(N)c2)c2ccncc23)CC1	> 10	> 10		19		> 10	> 10		> 10		
O=C(O)c1ccc2c(c1)nc(-c1ccccc1F)c1ccncc12	4.1	> 10	0.106	97		> 10	> 10		> 10		
Cn1cc(-c2nc3cc(C(=O)NC4CC4)ccc3c3cnc(NC4CC4)nc23)cn1		2.8		0	5.9	4.3		> 30		> 30	1.6
O=C(O)c1ccc2c(c1)nc(-c1ccc(Cl)cc1)c1ccncc12	> 10	> 10	0.007	98	> 10	> 10	> 10	> 10	> 10		
COC(=O)c1ccc2c(c1)nc(-c1ccccc1)c1nc(NC3CC3)ncc12 [methyl 3-(cyclopropylamino)-5-phenylpyrimido[4,5-c]quinoline-8-carboxylate]		3.2		-27	1.9	2.6		3.4		8.7	1.1
O=C(O)c1ccc2c(c1)nc(-c1ccsc1)c1ccncc12	> 10	> 10	0.004	98	> 10	> 30	0.2	> 10	13.3		
